Turning to `O=C(O)c1ccc(Br)c(S)c1`, the melting point lay within 315 to 317 °C.
The value for `Oc1cccc(NCCc2ccccn2)c1` was 118 to 120 °C.
The value for `Cn1c(-c2cccs2)n[nH]c1=O` was 183 to 185 °C.
In the case of `Cc1oc2c(OC(C)C(N)=O)cccc2c1C` (stereo not drawn) it was 116 to 119 °C; in that of `O=C(O)CCC(=O)c1ccc(-c2ccc(Br)cc2F)cc1`, 145 to 147 °C; in that of `O=C(c1ccccc1)N1CCC(O)(c2ccccc2Cc2ccccc2)C1` (stereo not drawn), 113 to 116 °C.
The compound `Cc1c(F)cc(C(=O)O)cc1-c1ccc(C(=O)NCC(C)(C)C)cc1C(=O)Nc1nccs1` registered a melting point of 196 to 200 °C.
The value for `Cc1ccc2c(c1)C(O)CC21CCN(CCCC(=O)c2ccc(F)cc2)C1` (stereo not drawn) was 137 to 139 °C; that for `CC(C)CC(NC(=O)C(Cc1c[nH]cn1)NC(=O)C(CC(=O)NCCc1ccccc1)Cc1cccc2ccccc12)C(O)CNCc1ccccc1` (mixture of isomers) was 108 to 113 °C.
The value for `CC(C)CNC(=O)c1ccc(C2(F)CC2c2ccc(Cl)cc2)cc1` (stereo not drawn) was 140 °C; that for `CCCCNC(=O)NS(=O)(=O)c1c(Cl)cccc1S(=O)(=O)N(C)C` was 107 to 115 °C; that for `N#Cc1ccc(-c2nc(CO)no2)cc1` was 138 to 140 °C.
The compound `CN(CCO)C(=O)Cn1nc(-c2ccccc2O)nc1-c1ccccc1O` returned a melting point of 101 to 104 °C.
The value for `CC(C)N(CCNC(=O)c1csc(NC(=O)C2=CC=CC(=Nc3ccc[nH]3)C2)n1)C(C)C` was 160 to 162 °C.
For the compound `CCCCOC(=O)c1cccc2nc(CCCC)n(Cc3ccc(-c4ccccc4-c4nnn[nH]4)cc3)c12`, the melting point is 192 to 193 °C.
The value for `Cc1ccc(S(=O)(=O)OCCC2COc3ccccc3O2)cc1` (stereo not drawn) was 82 to 83 °C; that for `Cc1nc(-c2ccc(Cl)cc2)n(-c2ccc(S(C)(=O)=O)cc2)n1` was 184 to 185 °C; that for `CC(=O)N1c2ccc(-c3ccc(CN4CCCCC4)cc3)cc2C(Nc2ccc(F)cc2)CC1C` (stereo not drawn) was 106 °C.
Take `CCn1nc2c(N)nc3cnccc3c2c1CC(C)(C)C`: the melting point was greater than 260 °C.
In the case of `CCCCC1(C#N)C2CC3CC(C2)CC1C3` (stereo not drawn) it was 48 to 50 °C; in that of `CNC(=O)N(C)c1nnc(SCc2cccc(F)c2)s1`, 112 to 116 °C; in that of `Cn1c(C(F)(F)F)cc(=O)n(-c2cc(F)c([N+](=O)[O-])cc2F)c1=O`, 150 °C.
In the case of `C[C@H](C(=O)O)c1ccc2cc(OCCCCCCc3cccc(OCc4ccccc4)c3OCc3ccccc3)ccc2c1` it was 66 to 70 °C.
Consider `Cc1nnc(C2=C(O)c3ccccc3S(=O)(=O)N2C)o1`, for which the melting point was 226 to 227 °C.
Take `NC(=S)N1CCN(c2ccc(SC(CCc3ccc(Cl)cc3)Cn3ccnc3)cc2)CC1` (stereo not drawn): the melting point is 130 to 133 °C.
The value for `O=C1CCCc2cc(I)ccc21` was 77 to 78 °C; that for `COc1ccc(-c2cc3cc(Br)ccc3o2)cc1` was 189 °C; that for `CCOC(=O)CSc1nc(O)c(C)c(O)n1` was 211 to 214 °C.
Compound `Cn1c(C(F)(F)F)cc(=O)n(-c2cc(OCc3ccccc3F)c(Cl)cc2F)c1=O` showed a melting point of 126 to 128 °C.
In the case of `CNC(=O)ON=C(Nc1ccc(C(F)(F)F)cc1)C1=NN(c2ccc(Cl)cc2)C(c2ccc(F)cc2)C1` (stereo not drawn) it was 75 to 77 °C; in that of `CCCN1CCCC2c3nc(N)sc3CCC21` (stereo not drawn), 163 to 181 °C; in that of `Clc1cccc2c1nnn2C1CCCCC1`, 141 to 144 °C.
In the case of `O=S1(=O)NCN(C2CCCCC2)c2cc(Cl)c(Cl)cc21` it was 207 to 209 °C; in that of `COc1cc(/C=C/C(=O)CC(=O)c2ccc(O)c(OC)c2)ccc1O`, 170 to 172 °C; in that of `CCc1ccc(NS(=O)(=O)c2ccc(N3CCNC3=O)cc2)cc1`, 195 to 196 °C.
The value for `CCCC[C@H](NC(=O)[C@H](CCCC)NC(=O)OCc1ccccc1)C(=O)CSCc1ccco1` was 95 to 97 °C.
Take `CC(=O)Oc1c(C)cc(OCC(=O)c2ccc(C(C)C)cc2)c2ccccc12`: the melting point was in the range of 105 to 106 °C.
`COc1cc([C@@H]2c3cc4c(cc3C(=O)C[C@H]2C(=O)O)OCO4)cc(OC)c1OC` (relative stereo) yielded a melting point of 221 to 223 °C.
In the case of `Clc1ccc2c(NCCC34C=CCN3CCC4)ccnc2c1` (stereo not drawn) it was 124 to 125 °C; in that of `OC(Cc1ccc(Cl)cc1Cl)(Cn1ccnc1)c1ccc(F)cc1` (stereo not drawn), 178 to 179 °C; in that of `COc1ccc2c(c1)c(CCOC(=O)c1cc(O)c3c(c1)C(=O)c1cccc(O)c1C3=O)c(C)n2C(=O)c1ccc(Cl)cc1`, 139 to 146 °C.
In the case of `COc1cc2c(cc1OC)C(Oc1ccccc1C#N)CN(C)C2` (stereo not drawn) it was 147 to 148 °C.
The value for `CC(=NOCCO)c1ccc(-c2ccc(C(F)(F)F)cc2)cc1` was 108 to 111 °C.
`O=C(NCc1ccccc1)c1cn2c(=O)n(Cc3ccc(Cl)c(Cl)c3)c(=O)cc2s1`: the melting point was 216 to 217 °C.
Consider `CCCS(=S)c1cccc(OS(C)(=O)=O)n1` (stereo not drawn), for which the melting point fell in the range of 51 to 53 °C.
The value for `CC(C)(C)OC(=O)N1CCN2C(=O)N(c3ccc(C#N)c4ccccc34)C(=O)C2C1` (stereo not drawn) was 222 to 224 °C; that for `COC(=O)CC(=O)NC1CCCCC1` was 77 to 78 °C.
In the case of `COC(=O)NCc1ccc2ccn(C3CCN(CCc4ccc(F)cc4)CC3)c2c1` it was 117 to 118 °C; in that of `COc1ccccc1N1CCN(CCN(C(=O)C2CCCCC2)c2ccccc2[N+](=O)[O-])CC1`, 119 to 121 °C.
The value for `Cc1c(F)c(F)cc2c1c(=O)c(C(=O)O)cn2-c1cc(N)c(F)cc1F` was greater than 270 °C.
Take `COC(=O)CCCCOc1ccc2nc3[nH]c(=O)[nH]c3cc2c1`: the melting point fell in the range of 281 to 282 °C.
In the case of `O=C1c2ccccc2C(=O)N1C1CCCc2sccc21` (stereo not drawn) it was 166 to 168 °C; in that of `CCC(O)(CC)Cc1ccc(N)cc1`, 85 to 86 °C.
For `OCc1cn(Cc2ccccc2)c(-c2ccc(OCc3ccccc3)cc2)n1`, the melting point lay in the range of 129 to 131 °C.
The value for `COc1ccc(C(O)(Cc2ccncc2)c2ccccc2)cc1OC1CCCC1` (stereo not drawn) was 148 to 149 °C; that for `CNC(=O)C1CCCc2c1c1cc(OC)ccc1n2Cc1ccccc1` (stereo not drawn) was 259 to 261 °C; that for `O=C(O)c1ccc2nc3sc(-c4ccccc4)cc3c(=O)n2c1` was 387 to 392 °C.
The value for `O=C(CCl)Nc1nc(-c2ccccc2)cs1` was 179 to 181 °C.
Compound `COc1ccc(OCC(O)CNC(C)(C)C)c(C)c1C` (stereo not drawn) registered a melting point of 73 to 75 °C.
The value for `COc1ccc(-c2c3cccc(C(F)(F)F)c3nn2CC2CCCCC2)c(OC)c1` was 156 to 157 °C.
With `COc1ccc(-c2[nH]nc3c2C(=O)c2c(NC=O)cccc2-3)cc1`, the melting point was 280 °C.
The value for `CC(C)C[C@H](NC(=O)OCc1ccco1)C(=O)N[C@@H](Cc1ccccc1)C(=O)CSCc1ccco1` was 115 to 118 °C; that for `CCOC(=O)c1cn(CC)c2occc2c1=O` was 158 to 160 °C.

A word on the melting point: it is the temperature, or range, at which the solid turns liquid.
